Laboratory results as given in US10233178B2, “Arylcyclopropylamine based demethylase inhibitors of LSD1 and their medical use” (priority 2010, dated 2019).

Experiments:
MAO-A = MAO-A (Homo sapiens (Human), UniProt P21397); experiment: biochemical
MAO-B = MAO-B (Homo sapiens (Human), UniProt P27338); experiment: biochemical
MAO-B, sequence (P27338 whole entry): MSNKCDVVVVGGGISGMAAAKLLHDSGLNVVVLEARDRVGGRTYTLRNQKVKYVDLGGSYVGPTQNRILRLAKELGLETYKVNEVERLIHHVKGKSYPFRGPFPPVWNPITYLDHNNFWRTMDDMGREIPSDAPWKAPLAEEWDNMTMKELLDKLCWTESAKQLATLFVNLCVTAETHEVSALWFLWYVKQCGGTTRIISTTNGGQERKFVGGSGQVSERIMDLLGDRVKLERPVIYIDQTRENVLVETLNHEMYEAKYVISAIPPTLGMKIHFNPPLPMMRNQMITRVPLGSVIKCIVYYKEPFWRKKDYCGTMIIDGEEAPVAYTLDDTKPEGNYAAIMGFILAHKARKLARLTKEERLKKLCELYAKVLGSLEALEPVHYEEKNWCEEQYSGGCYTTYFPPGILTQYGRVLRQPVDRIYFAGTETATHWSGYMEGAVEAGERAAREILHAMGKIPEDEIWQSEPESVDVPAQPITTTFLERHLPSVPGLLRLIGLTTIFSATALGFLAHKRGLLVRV
Description: For MAO-B, the protein was kept between 1.8 and 3.6 ng/ul (Sigma M7441) and kynuramine (Sigma) at 50 uM was used as substrate.

MAO-A, sequence (P21397 whole entry): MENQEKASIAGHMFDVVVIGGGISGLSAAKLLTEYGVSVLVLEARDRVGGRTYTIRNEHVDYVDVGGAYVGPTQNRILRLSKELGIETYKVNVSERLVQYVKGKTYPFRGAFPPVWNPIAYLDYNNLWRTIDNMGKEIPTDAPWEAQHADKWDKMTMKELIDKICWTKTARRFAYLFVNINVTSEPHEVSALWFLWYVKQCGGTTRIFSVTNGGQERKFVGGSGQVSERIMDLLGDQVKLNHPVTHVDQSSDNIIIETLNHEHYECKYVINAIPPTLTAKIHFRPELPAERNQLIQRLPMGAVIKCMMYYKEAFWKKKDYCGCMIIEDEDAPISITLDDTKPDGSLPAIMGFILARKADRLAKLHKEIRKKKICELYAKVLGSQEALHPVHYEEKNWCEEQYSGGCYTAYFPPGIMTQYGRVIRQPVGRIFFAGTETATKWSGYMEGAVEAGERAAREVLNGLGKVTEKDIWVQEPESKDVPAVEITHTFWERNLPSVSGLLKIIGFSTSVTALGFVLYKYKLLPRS

- kinact/KI (MAO-A): 62 M⁻¹ s⁻¹
- kinact/KI (MAO-B): 7460 M⁻¹ s⁻¹
SMILES: C#CCN[C@@H]1CCc2ccccc21 [Rasagiline]
